From ChEMBL document CHEMBL3627668, “Structure-activity relationships of furazano[3,4-b]pyrazines as mitochondrial uncouplers” (Bioorg Med Chem Lett, 2015) come the findings set out here.

Each structure is given as a SMILES string. pEC50: −log10 of the molar value.

In assay [1] the test system is L6. Kind of assay: Induction of mitochondrial uncoupling in rat L6 cells assessed as stimulation of cellular oxygen consumption. The note with it: for EC50: l6; for pEC50: Rattus norvegicus, L6, read-out: EC50. It is filed as functional, cell-based.
In assay [2] the test system is L6. Kind of assay: Induction of mitochondrial uncoupling in rat L6 cells assessed as stimulation of cellular oxygen consumption relative to control. It is filed as functional.

With `CCCNc1nc2nonc2nc1NCCC`, the EC50 entry in the assay on L6 [1] was “ND(Insoluble)”. In addition, the “%max” value in the assay with L6 [2] was determined as 98%. Broadly, the pEC50 is −log10 of the EC50, conventionally taken in molar units. Consider `Fc1cccc(Nc2nc3nonc3nc2Nc2cccc(F)c2)c1`, for which the pEC50 with L6 [1] was 6.74. Further, the “%max” value in the assay with L6 [2] amounted to 220.8%. Turning to `c1ccc(Nc2nc3nonc3nc2Nc2ccccn2)nc1`, the EC50 result in the assay with L6 [1] was “ND(Insoluble)”. In the case of `Clc1ccc(Nc2nc3nonc3nc2Nc2ccc(Cl)cc2)cc1`, the pEC50 with L6 [1] is 6.57. The “%max” value in the assay on L6 [2] was found to be 190.4%.

Regarding `CCCCCCNc1nc2nonc2nc1NCCCCCC`, in the assay with L6 [1], the EC50 entry is given as “ND(Insoluble)”. Also, in the assay with L6 [2], the “%max” value came out at 160.2%. On to `CCONc1nc2nonc2nc1NOCC`, for which the EC50 result in the assay on L6 [1] is recorded as “ND(Insoluble)”. In the assay on L6 [2], the “%max” value was 100%. Taken in the same sequence, the figures for `Ic1ccccc1Oc1nc2nonc2nc1Oc1ccccc1I` were “ND(Insoluble)” and 98.8%. As for `Fc1ccc(Nc2nc3nonc3nc2Nc2ccc(F)cc2)cc1`, in the assay on L6 [1], the pEC50 was 6.34. In addition, the “%max” value in the assay with L6 [2] came to 204%. Turning to `c1ccc(Oc2nc3nonc3nc2Oc2ccccc2)cc1`, the EC50 result in the assay on L6 [1] is “ND(Insoluble)”. For the same compound, the “%max” value with L6 [2] is 98.3%. As for `c1ccc(Nc2nc3nonc3nc2Nc2ccccc2)cc1`, the EC50 result in the assay with L6 [1] is listed as “ND(Insoluble)”. The “%max” value with L6 [2] is 172.8%. With `Fc1ccccc1Oc1nc2nonc2nc1Oc1ccccc1F`, the EC50 entry in the assay with L6 [1] was “ND(Insoluble)”. Moreover, the “%max” value in the assay with L6 [2] is listed as 93%. Turning to `FC(F)(F)CONc1nc2nonc2nc1NOCC(F)(F)F`, in the assay with L6 [1], the EC50 entry was “ND(Insoluble)”. Besides, in the assay on L6 [2], the “%max” value came out at 96.3%.

In the case of `CCCCNc1nc2nonc2nc1NCCCC`, the EC50 result in the assay on L6 [1] was “ND(Insoluble)”. Moreover, in the assay on L6 [2], the “%max” value is reported as 116%. As to `Fc1ccc(Nc2nc3nonc3nc2Nc2ccc(F)cc2F)c(F)c1`, the pEC50 in the assay with L6 [1] is 7.40. The “%max” value in the assay on L6 [2] was 222.6%.
